Test results reported in PubChem BioAssay (NCI).
Several values for one entry are separate records, joined by “and”; a condition that tells them apart may be missing. Equal values may be shown once.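 These data come from cells grown in 96-well plates and exposed to compound for 48 hours at five concentrations. GI50: concentration for 50% inhibition of growth. TGI marks complete inhibition of growth.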 *1 amine or outer side, *2 acyl side, *3 side chain or, on linkers, in order; H or OH if unused. Where a SMILES comes first, the peptide text is derived from it. Bridges are numbered along the chain shown (N, C = ends). [ ]: non-standard residue; d: D form. The star is where a group is joined. ξ: configuration not given here. Phe(3,5-F2) = N[C@@H](Cc1cc(F)cc(F)c1)C(=O)O; ξThr(3S) = C[C@H](O[*:3])C(N[*:1])C(=O)[*:2]; Pro(4R-Me) = C[C@H]1CN[C@H](C(=O)O)C1; Pip = O=C(O)[C@@H]1CCCCN1; X1 = Cc1ccc(N*)c(F)c1; CO = O=C([*:1])[*:2]

How the values were obtained:
Experiment in all cases: inhibition of tumour cell growth, NCI panel, 48 h
SK-MEL-2 melanoma = test system: SK-MEL-2 melanoma
MOLT-4 leukemia = test system: MOLT-4 leukemia
U251 CNS = test system: U251 CNS
DU-145 prostate = test system: DU-145 prostate
OVCAR-5 ovarian = test system: OVCAR-5 ovarian
T-47D breast = test system: T-47D breast
COLO 205 colon = test system: COLO 205 colon
SF-268 CNS = test system: SF-268 CNS
LOX IMVI melanoma = test system: LOX IMVI melanoma
NCI-H460 lung = test system: NCI-H460 lung
SK-MEL-28 melanoma = test system: SK-MEL-28 melanoma
UO-31 renal = test system: UO-31 renal
CAKI-1 renal = test system: CAKI-1 renal
NCI-H23 lung = test system: NCI-H23 lung
HCC-2998 colon = test system: HCC-2998 colon
ACHN renal = test system: ACHN renal
SF-539 CNS = test system: SF-539 CNS
OVCAR-3 ovarian = test system: OVCAR-3 ovarian
EKVX NSCLC = test system: EKVX NSCLC
HOP-92 NSCLC = test system: HOP-92 NSCLC
TK-10 renal = test system: TK-10 renal
PC-3 prostate = test system: PC-3 prostate
SNB-75 CNS = test system: SNB-75 CNS
SK-MEL-5 melanoma = test system: SK-MEL-5 melanoma
HL-60(TB) leukemia = test system: HL-60(TB) leukemia
BT-549 breast = test system: BT-549 breast
OVCAR-4 ovarian = test system: OVCAR-4 ovarian
SNB-19 CNS = test system: SNB-19 CNS
NCI/ADR-RES ovarian = test system: NCI/ADR-RES ovarian

In the case of `Cc1ccc(NC(=O)N[C@@H](Cc2cc(F)cc(F)c2)C(=O)NC2C(=O)N3CCC[C@H]3C(=O)N3CCCC[C@H]3C(=O)N[C@@H](C)C(=O)N3C[C@H](C)C[C@H]3C(=O)O[C@H]2C)c(F)c1` (stereo partly drawn) ({X1-CO}-[Phe(3,5-F2)][ξThr(3S)]P[Pip]A[Pro(4R-Me)]; ester 2-C), the GI50 (SK-MEL-2 melanoma) was 198 nM and 164 nM, the TGI (SK-MEL-2 melanoma) was 7580 nM and 921 nM and the GI50 (MOLT-4 leukemia) was 545 nM and 669 nM. For the same compound, the TGI (MOLT-4 leukemia) was 25800 nM and 22900 nM, the GI50 (U251 CNS) was 210 nM and 336 nM and the TGI (U251 CNS) was 50000 nM and > 100000 nM. The GI50 (DU-145 prostate) was 349 nM and 147 nM, the TGI (DU-145 prostate) was 50000 nM and > 100000 nM and the GI50 (OVCAR-5 ovarian) was 275 nM and 506 nM. The TGI (OVCAR-5 ovarian) was 9740 nM and 16000 nM, the GI50 (T-47D breast) was 222 nM and 314 nM and the TGI (T-47D breast) was 50000 nM and 18000 nM. For the same compound, the GI50 (COLO 205 colon) was 124 nM and 156 nM, the TGI (COLO 205 colon) was 338 nM and 496 nM and the GI50 (SF-268 CNS) was 393 nM and 446 nM. The TGI (SF-268 CNS) was 50000 nM and 48600 nM, the GI50 (LOX IMVI melanoma) was 131 nM and 425 nM and the TGI (LOX IMVI melanoma) was 6950 nM and 24400 nM. The GI50 (NCI-H460 lung) was 220 nM and 222 nM, the TGI (NCI-H460 lung) was 50000 nM and 21000 nM and the GI50 (SK-MEL-28 melanoma) was 467 nM and 709 nM. For the same compound, the TGI (SK-MEL-28 melanoma) was 13800 nM and 18400 nM, the GI50 (UO-31 renal) was 585 nM and 456 nM and the TGI (UO-31 renal) was 50000 nM and > 100000 nM. For the same compound, the GI50 (CAKI-1 renal) was 210 nM and 288 nM, the TGI (CAKI-1 renal) was 50000 nM and > 100000 nM and the GI50 (NCI-H23 lung) was 228 nM. For the same compound, the TGI (NCI-H23 lung) was 39400 nM, the GI50 (HCC-2998 colon) was 255 nM and 390 nM and the TGI (HCC-2998 colon) was 9170 nM and 10800 nM. For the same compound, the GI50 (ACHN renal) was 321 nM and 528 nM, the TGI (ACHN renal) was 50000 nM and > 100000 nM and the GI50 (SF-539 CNS) was 696 nM and 709 nM. The TGI (SF-539 CNS) was 11100 nM and 16900 nM, the GI50 (OVCAR-3 ovarian) was 360 nM and 312 nM and the TGI (OVCAR-3 ovarian) was 44900 nM and 13200 nM. For the same compound, the GI50 (EKVX NSCLC) was 252 nM and 377 nM, the TGI (EKVX NSCLC) was 50000 nM and > 100000 nM and the GI50 (HOP-92 NSCLC) was 163 nM and 251 nM. The TGI (HOP-92 NSCLC) was 9010 nM and 3050 nM, the GI50 (TK-10 renal) was 385 nM and 791 nM and the TGI (TK-10 renal) was 50000 nM and 42700 nM. The GI50 (PC-3 prostate) was 181 nM and 111 nM, the TGI (PC-3 prostate) was 50000 nM and > 100000 nM and the GI50 (SNB-75 CNS) was 289 nM. The TGI (SNB-75 CNS) was 50000 nM, the GI50 (SK-MEL-5 melanoma) was 199 nM and 397 nM and the TGI (SK-MEL-5 melanoma) was 7290 nM and 7900 nM. For the same compound, the GI50 (HL-60(TB) leukemia) was 213 nM and 47.4 nM, the TGI (HL-60(TB) leukemia) was 8610 nM and 2050 nM and the GI50 (BT-549 breast) was 283 nM and 260 nM. The TGI (BT-549 breast) was 12000 nM and 11800 nM, the GI50 (OVCAR-4 ovarian) was 268 nM and 98.9 nM and the TGI (OVCAR-4 ovarian) was 50000 nM and > 100000 nM. For the same compound, the GI50 (SNB-19 CNS) was 208 nM and 187 nM, the TGI (SNB-19 CNS) was 50000 nM and > 100000 nM and the GI50 (NCI/ADR-RES ovarian) was 1730 nM and 1700 nM. For the same compound, the TGI (NCI/ADR-RES ovarian) was 50000 nM and > 100000 nM.
